In ChEMBL document CHEMBL1133234, “Synthesis and biological activity of 4'-methoxy derivatives of abscisic acid” (2000):
Calls of active or inactive are those of the source. The calls are words filed in the database; no cut-off is given here.

Legend:
Format in all cases: functional
[1] = test system: Hordeum vulgare subsp. vulgare; assay: Compound was tested for inhibition of GA-inducible alpha-amylase induction in barley aleurone protoplasts at 0.1 uM
[2] = test system: Hordeum vulgare subsp. vulgare; assay: Compound was tested for inhibition of GA-inducible alpha-amylase induction in barley aleurone protoplasts at 1 uM
[3] = test system: Hordeum vulgare subsp. vulgare; assay: Compound was tested for inhibition of GA-inducible alpha-amylase induction in barley aleurone protoplasts at 100 uM
[4] = test system: Hordeum vulgare subsp. vulgare; assay: Compound was tested for inhibition of GA-inducible alpha-amylase induction in barley aleurone protoplasts at 10 uM
[5] = test system: Hordeum vulgare subsp. vulgare; assay: Compound was tested for inhibition of GA3-induced alpha-amylase induction and induction of the accumulation of dehydrin in unstressed barley seeds at 10 uM; Active
[6] = test system: Lepidium sativum; assay: Compound was tested for inhibition of cress germination at 0.1 uM
[7] = test system: Lepidium sativum; assay: Compound was tested for inhibition of cress germination at 10 uM
[8] = test system: Lepidium sativum; assay: Compound was tested for inhibition of cress germination at 100 uM
[9] = test system: Lepidium sativum; assay: Compound was tested for inhibition of cress germination at 1 uM
[10] = test system: Hordeum vulgare subsp. vulgare; assay: Compound was tested for inhibition of GA3-induced alpha-amylase induction and induction of the accumulation of dehydrin in unstressed barley seeds; Active

Row | SMILES | inhibition [1] | inhibition [2] | inhibition [3] | inhibition [4] | Activity [5] | inhibition at 0.1 µM [6] | inhibition at 10 µM [7] | inhibition at 100 µM [8] | inhibition at 1 µM [9] | Activity [10]
1 | CC1=CC(=O)CC(C)(C)[C@@]1(O)/C=C/C(C)=C\C(=O)O (racemic) [(+)-ABSCISIC ACID] | 50% | 100% | 100% | 100% | Active | ~60% | ~100% | ~100% | ~80% | –
2 | CO[C@@H]1C=C(C)[C@](O)(/C=C/C(C)=C\C(=O)O)C(C)(C)C1 | 60% | 90% | 100% | 100% | – | ~40% | ~95% | ~100% | ~60% | Active
3 | CO[C@H]1C=C(C)[C@](O)(/C=C/C(C)=C\C(=O)O)C(C)(C)C1 | 20% | 50% | 100% | 90% | – | ~20% | ~95% | ~100% | ~40% | Active
